Data as given in US7019029B2, “Skin whiteners containing hydroxytetronic acid derivatives” (priority 2000, dated 2006).

Tested on: hyperpigmented skin areas of melasma patients
Test: Study in melasma patients: topical treatment of hyperpigmented skin areas
Type: in vivo, human
Settings: oil-in-water emulsion containing about 10% compound, twice daily for 5 to 7 days, 4 melasma patients, observed in all the patients
Method: The efficacy of a preferred embodiment of the invention was tested in a clinical trial. An oil-in-water emulsion containing about 10% 4-diphenyl-2-hydroxytetronic acid was applied to various pigmented areas of the skin of 10 subjects twice daily. On normal pigmented skin types 2 and 3, visually apparent lightening was observed within 4 to 6 hours of application when compared to surrounding, untreated skin areas of the same subject. In another study, the hyperpigmented skin areas of 4 melasma patients were treated twice daily for 5 to 7 days.

## O=C1OC(c2ccccc2)(c2ccccc2)C(O)=C1O [4-diphenyl-2-hydroxytetronic acid, 3,4-dihydroxy-5-diphenyl-2(5H)-furanone]
  lightening of the pigmented lesions: Significant lightening
